Experimental data taken from US6767906B2, “2-amino-6-anilino-purines and their use as medicaments” (Novartis AG, priority 1999, dated 2004).

Row | SMILES | melting point
1 | CCCCc1ccc(N(c2nc(N[C@H]3CCCC[C@H]3C(N)=O)nc3c2ncn3CC)S(N)(=O)=O)cc1 (relative stereo) [Example 1, cis-2-[6-(4-butyl-aminosulfonyl-phenylamino)-9-ethyl-9H-purin-2-yl-amino]-cyclohexanecarboxylic acid amide] | 220 °C
2 | CCn1cnc2c(Nc3cccc(C(=O)NCc4ccccc4)c3)nc(N[C@H]3CC[C@H](O)CC3)nc21 [Example 72, N-benzyl-3-[9-ethyl-2-(trans-4-hydroxy-cyclohexylamino)-9H-purin-6-yl-amino]-benzamide] | 215 °C
3 | CCn1cnc2c(Nc3cccc(C(=O)NCc4ccc(F)cc4)c3)nc(N[C@H]3CC[C@H](O)CC3)nc21 [Example 73, 3-[9-ethyl-2-(trans-4-hydroxy-cyclohexylamino)-9H-purin-6-yl-amino]-N-(4-fluoro-benzyl)-benzamide] | 165 to 167 °C
4 | CCn1cnc2c(Nc3cccc(C(=O)NCc4ccc(OC)cc4)c3)nc(N[C@H]3CC[C@H](O)CC3)nc21 [Example 75, 3-[9-ethyl-2-(trans-4-hydroxy-cyclohexylamino)-9H-purin-6-yl-amino]-N-(4-methoxy-benzyl)-benzamide] | 157 to 158 °C
5 | CCn1cnc2c(Nc3cccc(C(=O)NCc4ccc(C(F)(F)F)cc4)c3)nc(N[C@H]3CC[C@H](O)CC3)nc21 [Example 76, 3-[9-ethyl-2-(trans-4-hydroxy-cyclohexylamino)-9H-purin-6-yl-amino]-N-(4-trifluoromethyl-benzyl)-benzamide] | 129 to 137 °C
6 | CCn1cnc2c(Nc3cccc(NS(=O)(=O)c4ccc(OC)cc4)c3)nc(N[C@H]3CC[C@H](O)CC3)nc21 [Example 82, N-{3-[9-Ethyl-2-(trans-4-hydroxy-cyclo-hexylamino)-9H-purin-6-yl-amino]-phenyl}-4-methoxy-benzenesulfonamide] | 140 to 143 °C
7 | CCn1cnc2c(Nc3cccc(NC(=O)C#Cc4ccc(Cl)cc4)c3)nc(N[C@H]3CC[C@H](O)CC3)nc21 [Example 92, N-{3-[9-Ethyl-2-(trans-4-hydroxy-cyclo-hexylamino)-9H-purin-6-yl-amino]-phenyl}-3-(4-chlorophenyl)-propargylic acid amide] | 148 to 150 °C
8 | CCn1cnc2c(Nc3cccc(NC(=O)C#Cc4ccc(F)cc4)c3)nc(N[C@H]3CC[C@H](O)CC3)nc21 [Example 93, N-{3-[9-Ethyl-2-(trans-4-hydroxy-cyclo-hexylamino)-9H-purin-6-yl-amino]-phenyl}-3-(4-fluorophenyl)-propargylic acid amide] | 144 to 146 °C
9 | CCn1cnc2c(Nc3cccc(NC(=O)C#Cc4ccc(OC)cc4)c3)nc(N[C@H]3CC[C@H](O)CC3)nc21 [Example 95, N-{3-[9-Ethyl-2-(trans-4-hydroxy-cyclo-hexylamino)-9H-purin-6-yl-amino]-phenyl}-3-(4-methoxyphenyl)-propargylic acid amide] | 142 to 144 °C
10 | CC(C)n1cnc2c(Nc3cccc(NC(=O)C#Cc4ccc(Cl)cc4)c3)nc(NC3CCC(O)CC3)nc21 (centres unmarked) [Example 96, 3-(4-Chloro-phenyl)-propynoic acid {3-[2-(4-hydroxy-cyclohexylamino)-9-isopropyl-9H-purin-6-ylamino]-phenyl}-amide] | 156 to 158 °C
11 | Cc1ccc(C#CC(=O)Nc2cccc(Nc3nc(NC4CCC(O)CC4)nc4c3ncn4C(C)C)c2)cc1 (centres unmarked) [Example 97, 3-p-Tolyl-propynoic acid {3-[2-(4-hydroxy-cyclohexylamino)-9-isopropyl-9H-purin-6-ylamino]-phenyl}-amide] | 152 to 154 °C
12 | COc1ccc(C#CC(=O)Nc2cccc(Nc3nc(NC4CCC(O)CC4)nc4c3ncn4C(C)C)c2)cc1 (centres unmarked) [Example 98, 3-(4-Methoxy-phenyl)-propynoic acid {3-[2-(4-hydroxy-cyclohexyl-amino)-9-isopropyl-9H-purin-6-ylamino]-phenyl)-amide] | 246 to 248 °C
13 | CC(C)n1cnc2c(Nc3cccc(NC(=O)C#Cc4ccc(F)cc4)c3)nc(NC3CCC(O)CC3)nc21 (centres unmarked) [Example 99, 3-(4-Fluoro-phenyl)-propynoic acid {3-[2-(4-hydroxy-cyclohexylamino)-9-isopropyl-9H-purin-6-ylamino]-phenyl}-amide] | 145 to 147 °C
14 | CC(C)n1cnc2c(Nc3cccc(NC(=O)C#Cc4ccccc4)c3)nc(NC3CCC(O)CC3)nc21 (centres unmarked) [Example 100, 3-(Phenyl)-propynoic acid {3-[2-(4-hydroxy-cyclohexylamino)-9-isopropyl-9H-purin-6-ylamino]-phenyl}-amide] | 162 to 164 °C
15 | CC(C)n1cnc2c(Nc3cccc(NC(=O)c4ccc(-c5ccccc5)cc4)c3)nc(NC3CCC(O)CC3)nc21 (centres unmarked) [Example 101, Biphenyl-4-carboxylic acid {3-[2-(4-hydroxy-cyclohexylamino)-9-isopropyl-9H-purin-6-ylamino]-phenyl]-amide] | 226 to 228 °C
16 | CCn1cnc2c(Nc3cccc(NC(=O)C#Cc4cccc(C)c4)c3)nc(NC3CCC(O)CC3)nc21 (centres unmarked) [Example 102, 3-m-Tolyl-propynoic acid {3-[9-ethyl-2-(4-hydroxy-cyclohexylamino)-9H-purin-6-ylamino]-phenyl}-amide] | 164 to 171 °C
17 | CCn1cnc2c(Nc3cccc(NC(=O)C#Cc4cccc(C(F)(F)F)c4)c3)nc(NC3CCC(O)CC3)nc21 (centres unmarked) [Example 103, 3-(3-Trifluoromethyl-phenyl)-propynoic acid {3-[9-ethyl-2-(4-hydroxy-cyclohexylamino)-9H-purin 6-ylamino]-phenyl}-amide] | 156 to 168 °C
18 | CCn1cnc2c(Nc3cccc(NC(=O)C#Cc4nccc(C)n4)c3)nc(NC3CCC(O)CC3)nc21 (centres unmarked) [Example 106, 3-(4-Methyl-pyrimidin-2-yl)-propynoic acid {3-[9-ethyl-2-(4-hydroxy-cyclohexylamino)-9H-purin-6-ylamino]-phenyl}-amide] | 167 to 177 °C
19 | CCn1cnc2c(Nc3cccc(NC(=O)C#Cc4c(Cl)cccc4Cl)c3)nc(N[C@H]3CC[C@H](O)CC3)nc21 [Example 107, N-{3-[9-Ethyl-2-(trans-4-hydroxy-cyclo-hexylamino)-9H-purin-6-yl-amino]-phenyl}-3-(2,6-dichlorophenyl)-propargylic acid amide] | 234 to 236 °C
20 | CCn1cnc2c(Nc3cccc(NC(=O)C#Cc4cccs4)c3)nc(N[C@H]3CC[C@H](O)CC3)nc21 [Example 108, N-{3-[9-Ethyl-2-(trans-4-hydroxy-cyclo-hexylamino)-9H-purin-6-yl-amino]-phenyl}-3-(2-thiophenyl)-propargylic acid amide] | 158 to 161 °C
21 | CCn1cnc2c(Nc3cccc(NC(=O)C#CCN4CCCCC4)c3)nc(NC3CCC(O)CC3)nc21 (centres unmarked) [Example 111, 4-Piperidin-1-yl-but-2-ynoic acid {3-[9-ethyl-2-(4-hydroxy-cyclohexyl-amino)-9H-purin-6-ylamino]-phenyl}-amide] | 150 °C

More lines, now with the values ahead:

Row | melting point | SMILES
22 | 135 to 139 °C | CCn1cnc2c(Nc3ccc(NC(=O)Oc4ccccc4)cc3)nc(N[C@H]3CC[C@H](O)CC3)nc21
23 | 131 to 134 °C | CCn1cnc2c(Nc3cccc(NC(=O)Oc4ccccc4)c3)nc(N[C@H]3CC[C@H](O)CC3)nc21
24 | 130 to 134 °C | CCn1cnc2c(Nc3cccc(C(=O)NCc4ccc(C)cc4)c3)nc(N[C@H]3CC[C@H](O)CC3)nc21 [Example 74, 3-[9-ethyl-2-(trans-4-hydroxy-cyclohexylamino)-9H-purin-6-yl-amino]-N-(4-methyl-benzyl)-benzamide]
25 | 265 to 267 °C | CCn1cnc2c(Nc3cccc(NS(C)(=O)=O)c3)nc(N[C@H]3CC[C@H](O)CC3)nc21 [Example 80, N-{3-[9-Ethyl-2-(trans-4-hydroxy-cyclo-hexylamino)-9H-purin-6-yl-amino]-phenyl} methanesulfonamide]
26 | 131 to 135 °C | CCn1cnc2c(Nc3ccc(NC(=O)OC)cc3)nc(N[C@H]3CC[C@H](O)CC3)nc21 [Example 83, {4-(9-Ethyl-2-(trans-4-hydroxy-cyclo-hexylamino)-9H-purin-6-yl-amino]-phenyl)-carbamic acid methyl ester]
27 | 121 to 125 °C | CCn1cnc2c(Nc3ccc(NC(=O)OCC(C)C)cc3)nc(N[C@H]3CC[C@H](O)CC3)nc21 [Example 84, {4-[9-Ethyl-2-(trans-4-hydroxy-cyclo-hexylamino)-9H-purin-6-yl-amino]-phenyl}-carbamic acid isobutyl ester]
28 | 214 to 217 °C | CCn1cnc2c(Nc3cccc(NC(=O)OC)c3)nc(N[C@H]3CC[C@H](O)CC3)nc21 [Example 86, {3-[9-Ethyl-2-(trans-4-hydroxy-cyclo-hexylamino)-9H-purin-6-yl-amino]-phenyl}-carbamic acid methyl ester]
29 | 122 to 125 °C | CCn1cnc2c(Nc3cccc(NC(=O)OCC(C)C)c3)nc(N[C@H]3CC[C@H](O)CC3)nc21 [Example 87, {3-[9-Ethyl-2-(trans-4-hydroxy-cyclo-hexylamino)-9H-purin-6-yl-amino]-phenyl}-carbamic acid isobutyl ester]
30 | 149 to 156 °C | CCn1cnc2c(Nc3cccc(NC(=O)C#Cc4cccc(C)n4)c3)nc(NC3CCC(O)CC3)nc21 (centres unmarked) [Example 105, 3-(6-Methyl-pyridin-2-yl)-propynoic acid {3-[9-ethyl-2-(4-hydroxy-cyclohexylamino)-9H-purin-6-ylamino]-phenyl}-amide]
31 | 231 to 232 °C | CCn1cnc2c(Nc3cccc(NC(=O)C#Cc4cc(C)ccc4C)c3)nc(N[C@H]3CC[C@H](O)CC3)nc21 [Example 109, N-{3-[9-Ethyl-2-(trans-4-hydroxy-cyclo-hexylamino)-9H-purin-6-yl-amino]-phenyl)-3-(2,5-dimethyl-phenyl)-propargylic acid amide]
32 | 146 to 148 °C | CCn1cnc2c(Nc3cccc(NC(=O)C#Cc4ccc(C)c(C)c4)c3)nc(N[C@H]3CC[C@H](O)CC3)nc21 [Example 110, N-(3-[9-Ethyl-2-(trans-4-hydroxy-cyclo-hexylamino)-9H-purin-6-yl-amino]-phenyl}-3-(3,4-dimethyl-phenyl)-propargylic acid amide]
